Data: ChEMBL document CHEMBL5442219

Key:
Details in all cases: Compound concentration 10 µM
[1] = biological target: D(1B) dopamine receptor (Homo sapiens) (UniProt P21918)
[2] = biological target: 5-hydroxytryptamine receptor 6 (Homo sapiens) (UniProt P50406)
[3] = biological target: Sigma intracellular receptor 2 (Homo sapiens) (UniProt Q5BJF2)
[4] = biological target: Histamine H4 receptor (Homo sapiens) (UniProt Q9H3N8)
[5] = biological target: Sigma non-opioid intracellular receptor 1 (Homo sapiens) (UniProt Q99720)
[6] = biological target: 5-hydroxytryptamine receptor 2A (Homo sapiens) (UniProt P28223)
[7] = biological target: 5-hydroxytryptamine receptor 1B (Homo sapiens) (UniProt P28222)
[8] = biological target: Histamine H1 receptor (Homo sapiens) (UniProt P35367)
[9] = biological target: Muscarinic acetylcholine receptor M3 (Homo sapiens) (UniProt P20309)
[10] = biological target: Delta-type opioid receptor (Homo sapiens) (UniProt P41143)
[11] = biological target: 5-hydroxytryptamine receptor 1E (Homo sapiens) (UniProt P28566)
[12] = biological target: D(2) dopamine receptor (Homo sapiens) (UniProt P14416)
[13] = biological target: 5-hydroxytryptamine receptor 1D (Homo sapiens) (UniProt P28221)
[14] = biological target: Histamine H3 receptor (Homo sapiens) (UniProt Q9Y5N1)
[15] = biological target: Beta-2 adrenergic receptor (Homo sapiens) (UniProt P07550)
[16] = biological target: D(1A) dopamine receptor (Homo sapiens) (UniProt P21728)
[17] = biological target: 5-hydroxytryptamine receptor 5A (Homo sapiens) (UniProt P47898)
[18] = biological target: T1, Alpha-1A adrenergic receptor (Homo sapiens) (UniProt P35348)
T1 sequence (whole entry): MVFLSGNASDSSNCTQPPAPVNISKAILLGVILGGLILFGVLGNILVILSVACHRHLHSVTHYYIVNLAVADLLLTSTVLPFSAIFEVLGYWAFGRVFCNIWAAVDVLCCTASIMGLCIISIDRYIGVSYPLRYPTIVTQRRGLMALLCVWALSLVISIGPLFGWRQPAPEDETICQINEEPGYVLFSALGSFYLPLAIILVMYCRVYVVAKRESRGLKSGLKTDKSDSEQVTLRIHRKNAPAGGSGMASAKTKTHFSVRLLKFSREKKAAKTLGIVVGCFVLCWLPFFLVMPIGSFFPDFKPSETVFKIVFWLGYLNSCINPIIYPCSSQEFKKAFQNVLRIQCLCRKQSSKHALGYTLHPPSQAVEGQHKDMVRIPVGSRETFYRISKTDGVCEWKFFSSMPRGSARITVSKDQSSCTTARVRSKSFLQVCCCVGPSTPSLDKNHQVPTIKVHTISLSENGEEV

[19] = biological target: T2, Muscarinic acetylcholine receptor M1 (Homo sapiens) (UniProt P11229)
T2 sequence (whole entry): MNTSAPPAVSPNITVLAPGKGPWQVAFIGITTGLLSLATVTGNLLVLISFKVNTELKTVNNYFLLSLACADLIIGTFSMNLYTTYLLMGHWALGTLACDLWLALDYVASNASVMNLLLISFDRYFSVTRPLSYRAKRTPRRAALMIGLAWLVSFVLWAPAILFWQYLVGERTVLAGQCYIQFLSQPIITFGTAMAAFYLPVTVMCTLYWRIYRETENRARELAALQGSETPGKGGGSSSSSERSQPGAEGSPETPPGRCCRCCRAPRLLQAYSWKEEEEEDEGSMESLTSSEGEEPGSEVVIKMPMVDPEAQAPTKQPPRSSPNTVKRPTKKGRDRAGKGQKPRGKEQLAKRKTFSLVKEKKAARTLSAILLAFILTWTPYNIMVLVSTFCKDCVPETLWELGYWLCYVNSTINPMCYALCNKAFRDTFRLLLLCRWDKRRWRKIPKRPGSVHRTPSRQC

[20] = biological target: T3, Alpha-2A adrenergic receptor (Homo sapiens) (UniProt P08913)
T3 sequence (whole entry): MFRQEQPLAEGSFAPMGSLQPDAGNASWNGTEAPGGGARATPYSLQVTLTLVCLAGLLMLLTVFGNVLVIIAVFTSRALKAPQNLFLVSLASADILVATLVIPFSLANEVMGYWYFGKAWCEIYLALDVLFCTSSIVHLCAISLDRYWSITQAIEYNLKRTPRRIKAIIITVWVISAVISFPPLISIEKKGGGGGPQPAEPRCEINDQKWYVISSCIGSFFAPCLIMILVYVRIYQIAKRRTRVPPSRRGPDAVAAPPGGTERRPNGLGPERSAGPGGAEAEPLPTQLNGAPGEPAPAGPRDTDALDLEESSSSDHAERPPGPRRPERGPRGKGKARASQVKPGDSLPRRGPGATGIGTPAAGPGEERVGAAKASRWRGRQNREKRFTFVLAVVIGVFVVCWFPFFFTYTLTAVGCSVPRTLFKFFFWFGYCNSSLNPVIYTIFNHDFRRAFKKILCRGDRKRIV

Chain of D(2) dopamine receptor (Homo sapiens) (P14416 whole entry): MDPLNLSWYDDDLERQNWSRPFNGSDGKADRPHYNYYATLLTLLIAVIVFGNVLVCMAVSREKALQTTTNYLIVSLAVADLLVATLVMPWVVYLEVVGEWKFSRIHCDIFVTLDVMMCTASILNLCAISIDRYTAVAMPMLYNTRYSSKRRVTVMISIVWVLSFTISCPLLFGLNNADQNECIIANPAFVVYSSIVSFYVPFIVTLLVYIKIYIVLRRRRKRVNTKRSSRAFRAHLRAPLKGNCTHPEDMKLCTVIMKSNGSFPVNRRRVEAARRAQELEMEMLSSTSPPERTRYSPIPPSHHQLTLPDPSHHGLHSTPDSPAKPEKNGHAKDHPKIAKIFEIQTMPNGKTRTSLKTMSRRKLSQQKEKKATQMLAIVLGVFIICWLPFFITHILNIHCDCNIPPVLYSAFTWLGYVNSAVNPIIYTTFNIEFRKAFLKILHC
Chain of Sigma intracellular receptor 2 (Homo sapiens) (Q5BJF2 whole entry): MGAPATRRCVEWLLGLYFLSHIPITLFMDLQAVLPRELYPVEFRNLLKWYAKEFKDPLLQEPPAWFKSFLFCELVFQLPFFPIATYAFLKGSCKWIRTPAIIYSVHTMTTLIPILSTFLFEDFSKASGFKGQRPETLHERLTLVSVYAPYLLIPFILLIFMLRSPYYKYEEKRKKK
Chain of Sigma non-opioid intracellular receptor 1 (Homo sapiens) (Q99720 whole entry): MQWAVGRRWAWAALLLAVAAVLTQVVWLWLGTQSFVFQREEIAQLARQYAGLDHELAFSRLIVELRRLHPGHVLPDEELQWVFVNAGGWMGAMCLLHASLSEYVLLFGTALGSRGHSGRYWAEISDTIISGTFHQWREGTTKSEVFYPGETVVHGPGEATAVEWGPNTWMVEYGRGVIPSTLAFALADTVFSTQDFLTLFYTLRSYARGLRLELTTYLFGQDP
Chain of Delta-type opioid receptor (Homo sapiens) (P41143 whole entry): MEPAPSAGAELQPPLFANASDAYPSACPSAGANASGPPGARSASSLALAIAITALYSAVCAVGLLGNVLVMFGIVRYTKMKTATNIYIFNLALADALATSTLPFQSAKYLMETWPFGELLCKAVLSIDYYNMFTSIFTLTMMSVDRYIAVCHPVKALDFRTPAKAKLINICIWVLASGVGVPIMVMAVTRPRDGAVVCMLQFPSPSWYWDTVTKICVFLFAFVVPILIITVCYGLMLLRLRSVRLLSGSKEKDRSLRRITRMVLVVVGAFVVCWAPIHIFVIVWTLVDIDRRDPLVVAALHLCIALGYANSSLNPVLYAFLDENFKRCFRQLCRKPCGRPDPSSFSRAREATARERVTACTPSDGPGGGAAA
Chain of Histamine H3 receptor (Homo sapiens) (Q9Y5N1 whole entry): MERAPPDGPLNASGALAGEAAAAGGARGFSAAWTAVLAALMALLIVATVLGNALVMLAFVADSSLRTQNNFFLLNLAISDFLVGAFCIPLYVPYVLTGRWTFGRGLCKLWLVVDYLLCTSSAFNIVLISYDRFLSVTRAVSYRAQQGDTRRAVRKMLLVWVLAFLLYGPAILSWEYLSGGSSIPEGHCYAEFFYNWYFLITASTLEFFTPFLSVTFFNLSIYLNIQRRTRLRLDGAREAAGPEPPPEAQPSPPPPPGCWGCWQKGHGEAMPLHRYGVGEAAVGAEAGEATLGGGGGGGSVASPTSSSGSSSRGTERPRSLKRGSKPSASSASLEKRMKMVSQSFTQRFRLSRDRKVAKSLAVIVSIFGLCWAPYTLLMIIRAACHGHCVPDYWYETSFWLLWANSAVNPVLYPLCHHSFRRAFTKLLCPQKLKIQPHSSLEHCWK
Chain of D(1B) dopamine receptor (Homo sapiens) (P21918 whole entry): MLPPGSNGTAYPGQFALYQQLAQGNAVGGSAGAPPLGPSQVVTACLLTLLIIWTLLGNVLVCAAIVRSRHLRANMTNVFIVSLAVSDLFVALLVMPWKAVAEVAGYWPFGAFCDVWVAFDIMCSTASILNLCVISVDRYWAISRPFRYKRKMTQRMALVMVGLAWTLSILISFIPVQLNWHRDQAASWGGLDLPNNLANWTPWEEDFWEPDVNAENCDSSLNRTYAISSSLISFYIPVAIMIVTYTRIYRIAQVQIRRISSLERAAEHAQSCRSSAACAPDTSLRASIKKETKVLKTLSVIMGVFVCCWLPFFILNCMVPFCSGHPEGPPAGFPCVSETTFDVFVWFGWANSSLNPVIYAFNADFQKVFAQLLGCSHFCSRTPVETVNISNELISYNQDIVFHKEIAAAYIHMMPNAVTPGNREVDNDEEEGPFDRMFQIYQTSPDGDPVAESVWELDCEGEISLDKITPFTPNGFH
Chain of D(1A) dopamine receptor (Homo sapiens) (P21728 whole entry): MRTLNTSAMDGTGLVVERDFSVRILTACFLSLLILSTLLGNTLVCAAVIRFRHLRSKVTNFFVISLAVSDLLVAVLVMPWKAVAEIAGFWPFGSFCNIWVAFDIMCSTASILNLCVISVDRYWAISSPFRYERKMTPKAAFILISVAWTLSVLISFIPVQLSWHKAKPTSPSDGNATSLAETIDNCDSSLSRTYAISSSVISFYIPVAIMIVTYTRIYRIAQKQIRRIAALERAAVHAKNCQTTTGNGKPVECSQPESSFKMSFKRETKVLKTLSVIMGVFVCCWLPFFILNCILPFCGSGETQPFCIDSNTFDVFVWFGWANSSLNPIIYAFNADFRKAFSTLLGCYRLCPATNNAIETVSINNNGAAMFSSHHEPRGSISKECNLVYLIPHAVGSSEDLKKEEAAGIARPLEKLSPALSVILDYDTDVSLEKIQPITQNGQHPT
Chain of 5-hydroxytryptamine receptor 6 (Homo sapiens) (P50406 whole entry): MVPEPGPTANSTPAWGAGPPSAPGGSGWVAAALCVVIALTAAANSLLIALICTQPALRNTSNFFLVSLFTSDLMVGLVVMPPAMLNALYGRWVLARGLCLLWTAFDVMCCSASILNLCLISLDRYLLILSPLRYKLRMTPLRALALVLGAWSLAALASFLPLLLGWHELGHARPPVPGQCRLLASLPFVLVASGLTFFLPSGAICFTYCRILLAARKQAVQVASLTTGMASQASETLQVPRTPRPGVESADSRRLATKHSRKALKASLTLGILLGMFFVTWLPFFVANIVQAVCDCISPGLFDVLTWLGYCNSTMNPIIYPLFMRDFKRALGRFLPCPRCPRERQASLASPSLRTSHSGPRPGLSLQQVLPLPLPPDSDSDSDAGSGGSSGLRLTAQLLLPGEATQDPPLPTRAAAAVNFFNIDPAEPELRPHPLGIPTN
Chain of 5-hydroxytryptamine receptor 2A (Homo sapiens) (P28223 whole entry): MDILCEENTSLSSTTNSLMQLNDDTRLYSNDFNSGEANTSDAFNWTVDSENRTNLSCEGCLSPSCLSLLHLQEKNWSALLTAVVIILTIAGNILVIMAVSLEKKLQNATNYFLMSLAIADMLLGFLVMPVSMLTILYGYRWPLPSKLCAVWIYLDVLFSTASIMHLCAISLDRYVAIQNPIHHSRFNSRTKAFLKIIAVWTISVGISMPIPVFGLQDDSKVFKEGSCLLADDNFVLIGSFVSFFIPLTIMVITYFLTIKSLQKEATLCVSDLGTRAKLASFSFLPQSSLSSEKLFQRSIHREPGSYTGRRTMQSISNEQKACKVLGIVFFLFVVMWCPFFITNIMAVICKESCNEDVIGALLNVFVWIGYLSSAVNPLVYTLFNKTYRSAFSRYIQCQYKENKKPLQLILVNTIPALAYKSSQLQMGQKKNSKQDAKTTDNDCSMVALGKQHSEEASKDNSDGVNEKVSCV
Chain of Muscarinic acetylcholine receptor M3 (Homo sapiens) (P20309 whole entry, looked up): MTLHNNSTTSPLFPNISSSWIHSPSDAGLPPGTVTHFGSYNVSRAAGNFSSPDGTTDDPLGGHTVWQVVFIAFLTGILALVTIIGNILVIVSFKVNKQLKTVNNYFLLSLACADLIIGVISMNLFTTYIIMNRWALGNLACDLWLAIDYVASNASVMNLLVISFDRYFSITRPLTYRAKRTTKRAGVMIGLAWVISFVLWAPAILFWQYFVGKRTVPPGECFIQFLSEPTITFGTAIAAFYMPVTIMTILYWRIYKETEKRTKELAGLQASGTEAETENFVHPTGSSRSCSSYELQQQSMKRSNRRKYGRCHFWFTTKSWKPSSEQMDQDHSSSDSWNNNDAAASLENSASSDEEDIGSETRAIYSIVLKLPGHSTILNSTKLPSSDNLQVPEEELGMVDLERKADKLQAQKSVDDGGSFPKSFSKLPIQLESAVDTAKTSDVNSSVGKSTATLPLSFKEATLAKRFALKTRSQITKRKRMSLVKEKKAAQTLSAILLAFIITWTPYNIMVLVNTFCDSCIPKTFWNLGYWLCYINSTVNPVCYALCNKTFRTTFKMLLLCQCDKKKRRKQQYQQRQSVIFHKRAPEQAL
Chain of 5-hydroxytryptamine receptor 1B (Homo sapiens) (P28222 whole entry): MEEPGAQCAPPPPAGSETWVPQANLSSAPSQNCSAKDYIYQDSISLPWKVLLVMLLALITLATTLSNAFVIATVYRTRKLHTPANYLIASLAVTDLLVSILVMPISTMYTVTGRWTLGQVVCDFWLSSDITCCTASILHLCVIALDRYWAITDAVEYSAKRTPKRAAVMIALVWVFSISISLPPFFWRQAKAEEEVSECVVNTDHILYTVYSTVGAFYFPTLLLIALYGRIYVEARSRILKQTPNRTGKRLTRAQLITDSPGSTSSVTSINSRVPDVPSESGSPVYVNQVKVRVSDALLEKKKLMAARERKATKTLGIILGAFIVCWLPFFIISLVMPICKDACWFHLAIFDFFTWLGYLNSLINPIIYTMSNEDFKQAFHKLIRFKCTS
Chain of 5-hydroxytryptamine receptor 5A (Homo sapiens) (P47898 whole entry): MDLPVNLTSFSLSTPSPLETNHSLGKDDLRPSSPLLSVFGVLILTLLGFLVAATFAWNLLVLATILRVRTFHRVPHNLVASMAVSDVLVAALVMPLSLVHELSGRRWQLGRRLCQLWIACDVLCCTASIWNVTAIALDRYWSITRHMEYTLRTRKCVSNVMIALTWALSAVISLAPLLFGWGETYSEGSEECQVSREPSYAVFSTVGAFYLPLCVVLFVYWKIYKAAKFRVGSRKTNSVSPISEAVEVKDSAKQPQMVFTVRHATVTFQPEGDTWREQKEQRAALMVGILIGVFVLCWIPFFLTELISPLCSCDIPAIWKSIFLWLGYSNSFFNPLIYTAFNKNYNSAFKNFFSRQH

SMILES	inhibition [1] [%]	inhibition [2] [%]	inhibition [3] [%]	inhibition [4] [%]	inhibition [5] [%]	inhibition [6] [%]	inhibition [7] [%]	inhibition [8] [%]	inhibition [9] [%]	inhibition [10] [%]	inhibition [11] [%]	inhibition [12] [%]	inhibition [13] [%]	inhibition [14] [%]	inhibition [15] [%]	inhibition [16] [%]	inhibition [17] [%]	inhibition [18] [%]	inhibition [19] [%]	inhibition [20] [%]
CCCNS(=O)(=O)Nc1ncnc(OCCOc2ncc(Br)cn2)c1-c1ccc(Br)cc1	-1.25	2.99	30	8.98	15.8	42.8	-0.31	11.5	20.8	23.6	42.3	15.2	9.11	1.52	–	–	–	–	–	–
O=C(O)C1CN(Cc2ccc(-c3nc4cc(Cc5ccccc5F)ccc4s3)c(F)c2)C1	-0.27	8.45	19.1	-0.17	5.12	9.17	–	37.5	-1.67	-3.98	31.1	–	–	1.61	66.8	2.63	7.19	-8.12	0.63	–
O=C(O)CC1CCC2(CC1)CCN(c1cc(OC(F)(F)F)ccc1Cl)CC2	-2.48	14.2	-1.25	9.28	-0.46	26.1	-0.21	31.1	-5.1	-0.66	16.8	18.6	–	7.59	0.58	–	–	-7.1	-1.08	–
CN(C)S(=O)(=O)c1ccc(NC(=S)N2CCC(C(O)(c3ccccc3)c3ccccc3)CC2)cc1	5.17	8.14	95.2	-3.58	45.3	11	–	6.41	-7.46	10.2	7.01	23.4	–	–	71.8	21.9	–	-0.67	8.52	-9.2
O=C(O)COc1cccc(CN(Cc2ccc(-n3cccn3)cc2)S(=O)(=O)c2cccnc2)c1	2.14	-0.81	4.27	-9.76	5.04	15.6	12.1	1.83	7.64	22.4	14.9	7.85	–	6.23	-8.36	–	–	-1.12	3.45	-8.07
CC(C)NC(=O)c1ccc(C#Cc2ccncc2)cn1	–	-2.79	8.09	-7.18	68.4	4.54	–	–	–	-3.71	-1.26	-3.71	–	–	-8.85	–	–	-5.19	-0.6	–
CO[C@@H]1COCC[C@@H]1N[C@@H]1CC[C@@](C(=O)N2CCc3ncc(C(F)(F)F)cc3C2)(C(C)C)C1	0.19	3.16	67.9	2.39	81.8	4.71	-6.23	25.1	6.08	-2.34	9.5	16.4	–	4.46	-6.91	–	–	-0.61	-6.06	–
CCOC(=O)c1cc(C#N)c(N2CCC(C(=O)NS(=O)(=O)Cc3ccccc3)CC2)nc1C	–	9.24	4.45	6.28	44.3	5.11	–	-6.11	–	-8.38	-8.79	13.7	–	15	-1.62	0.26	-2.81	33.7	–	–
FC(F)(F)c1c(N2CCC(c3ccccc3)CC2)ccn2c(CC3CC3)nnc12	-0.45	-9.81	22.9	-1.74	64.7	44.4	-8.94	33	-8.34	–	21.9	26	–	–	-5.09	–	–	-6.36	-1.64	–
O=C1O[C@]2(CC[C@H](C(=O)Nc3ccn(-c4ccccc4F)n3)CC2)c2cnccc21	-8.27	0.42	-5.33	–	4.97	22.2	-3.32	7.78	2.94	-5.86	5.31	10.1	–	2.41	–	–	–	–	-6	-9.69
C[C@]1(C(=O)N(CCCC(=O)O)Cc2cccc(Cl)c2)CCN1C(=O)c1csc2ccccc12	-8.24	3.68	-7.28	12.9	32.5	5.34	–	15.4	–	-1.78	-8.85	-7.68	–	-8.42	–	-1.97	-1.31	-4.07	5.11	10.9
N#Cc1ccc(NC(=O)Nc2ccccc2Br)c2nn[nH]c12	-7.18	–	–	25.3	9.64	-5.61	1.05	0.77	–	16.4	4.87	-0.4	1.14	3.06	-2.94	2.97	–	–	–	–
CC1=C2C[C@H]3[C@@H](CC=C4C[C@@H](O)CC[C@@]43C)[C@@H]2CC[C@]12O[C@@H]1C[C@H](C)CN[C@H]1[C@H]2C	1.59	–	91.8	-2.19	10.2	4.16	–	40.4	-6.3	-0.87	6.19	13.2	–	32.2	5.22	-4.8	–	–	22.8	-1.14
